# Measurements: patent publication US20100009917A1, “Modulating Enzymatic Processes by Addition of Diolcontaining Substances” (priority 2007, published 2010)
# Where two headings read alike, the source gives them in different places.
# Target: T1, TGase MTG P2 (Streptomyces mobaraensis, UniProt P81453)
# T1 construct: made in house; host or cells: E. coli
# Type: biochemical, Streptovercilium mobaraense
# Protocol: TGase: • (a) TGase Activa WM from Ajinomoto, 60 mg/ml in 20 mM Phosphate buffer pH 8.5. The Activa WM enzyme from Streptoverticillium mobaraense is formulated under dry form in maltodextrins and contains 1% w/w of protein) (6.7 μl)); or • (b) TGase MTG P2 from Streptovercilium mobaraense expressed in soluble form using E. coli as expression system was formulated in 20 mM NaPhosphate buffer, pH 6.0, with 2 mM DTT and 5 w/v % maltodextrin. The concentration of the enzyme was between 0.7 and 4.5 mg/ml.
# Capillary electrophoresis (CE) was carried out using an Agilent Technologies 3D-CE system (Agilent Technologies). Data acquisition and signal processing were performed using Agilent Technologies 3DCE ChemStation. The capillary was a 64.5 cm (56.0 cm efficient length) 50 μm i.d. “Extended Light Path Capillary” from Agilent. UV detection was performed at 200 nm (16 nm Bw, Reference 380 nm and 50 nm Bw). The running electrolyte was phosphate buffer 50 mM pH7.0. The capillary was conditioned with 0.1M NaOH for 3 min, then with Milli-Q water for 2 min and with the electrolyte for 3 min.
# After each run, the capillary was flushed with milli-Q water for 2 min, then with phosphoric acid for 2 min, and with milli-Q water for 2 min. The hydrodynamic injection was done at 50 mbar for 4.0 s. The voltage was +25 kV. The capillary temperature was 30 C and the runtime was 10.5 min.
# To a 1M solution of […] in triethanolamine 20 mM pH8.6 buffer (14 μl) was added triethanolamine 20 mM pH8.6 buffer (20.6 μl), ethylene glycol (53.6 μl) (40% w/v)), and a solution of human growth hormone (50 mg/ml) in triethanolamine 20 mM pH8.6 buffer (40 μl). The reaction was started by the addition of the TGase MTG P2 solution (0.35 mg/ml, 5.8 μl). The reaction mixture was incubated at ambient temperature and followed on CE.
# (§1) The reaction was carried out in an analogous manner to the above method using the following concentrations: • [hGH]=0.67 mM (14.9 mg/ml final concentration) • [1,3-diamino 2-propanol]=300 mM • Buffer: 20 mM Triethanolamine pH 8.6 • +/−Ethylene glycol 40% (v/v) • [TGase MTG P2]=0.39 μM
# The reaction was carried out in an analogous manner to the above method using the following concentrations: • [hGH]=0.67 mM (14.9 mg/ml final concentration) • [1,3-diamino 2-propanol]=300 mM • Buffer: 20 mM Triethanolamine pH 8.6 • +/−Ethylene glycol 10-40% (v/v) • [TGase MTG P2]=0.39 μM
# The reaction was carried out in an analogous manner to the above method using the following concentrations: • [hGH]=0.67 mM (14.9 mg/ml final concentration) • [1,3-diamino 2-propanol]=300 mM • Buffer: 20 mM Triethanolamine pH 8.6 • +/−Ethylene glycol 40% (v/v) • [TGase MTG P2]=0.39 μM or 0.16 μM
# as §1, with “out with ethylene glycol, glycerol, propylene glycol and 1,3 propanediol” for “out”, “+/−enhancing compound 7.18 M” for “+/−Ethylene glycol 40% (v/v)”
# The reaction was carried out with glycerol in an analogous manner to the above method, except for the fact that more enzyme was added after five hours of reaction time. The reaction used the following concentrations: • [hGH]=0.67 mM (14.9 mg/ml final concentration) • [1,3-diamino 2-propanol]=300 mM • Buffer: 20 mM Triethanolamine pH 8.6 • Glycerol 7.18 M • [TGase MTG P2]=0.39 μM then 1.17 μM at 5 hours
# [1] = enhancing compound 7.18 M, TGase MTG P2 0.39 μM, FIG. 7
# T1 sequence (P81453 77-407): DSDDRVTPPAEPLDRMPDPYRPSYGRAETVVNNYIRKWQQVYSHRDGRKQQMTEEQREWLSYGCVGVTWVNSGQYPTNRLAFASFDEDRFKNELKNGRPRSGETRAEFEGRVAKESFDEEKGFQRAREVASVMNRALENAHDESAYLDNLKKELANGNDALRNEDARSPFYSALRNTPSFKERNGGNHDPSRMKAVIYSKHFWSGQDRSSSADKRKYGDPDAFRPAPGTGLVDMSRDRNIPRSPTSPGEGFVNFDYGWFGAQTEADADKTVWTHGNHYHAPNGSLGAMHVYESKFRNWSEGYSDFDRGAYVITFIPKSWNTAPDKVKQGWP
compound,measurement,setting,value
"CC(O)CO (stereo not drawn) [Propylene glycol, propylene glycol]","yield, comparison of compounds of related structures",[1],next highest yield
"OCC(O)CO [Glycerol, glycerol]",selectivity of the reaction,,improved the selectivity of the reaction
same,side products (pos.40-TA-hGH and di-transaminated hGH) formed,[1],reduce the amount of side products
same,yield when more enzyme is added,"glycerol 7.18 M, TGase MTG P2 0.39 μM then 1.17 μM at 5 hours, FIG. 8",can be increased
OCCO [ethylene glycol],"product yield, varying enzyme concentration",,highest product yield
same,yield of pos.141 TA-hGH with rising ethylene glycol concentration,,increased yield
same,"yield, comparison of compounds of related structures",,highest yield
same,maximum yield of the desired pos.141-hGH,pH 8.6,75%
"OCCCO [1,3 propanediol, reference compound]",effect on the enzyme reaction,"1,3 propanediol 7.18 M, TGase MTG P2 0.39 μM, FIG. 7",completely inhibited the reaction
